From ChEMBL document CHEMBL2150853 (Eur J Med Chem, 2011)

Columns and labels:
N167 = assay: Antiprion activity against mouse prion protein 22L infected mouse N167 cells assessed as drug level required for more than 99 percent reduction of PrPSc level by Western blot method; format: cell-based
[1] = target: Major prion protein (Homo sapiens) (UniProt P04156); assay: Binding affinity to truncated human PrP 121-231 at 50 uM by surface plasmon resonance method
ScN2a = assay: Antiprion activity against mouse prion protein RML infected mouse ScN2a cells assessed as drug level required for more than 99 percent reduction of PrPSc level by Western blot method; format: cell-based
[2] = Cytotoxicity against mouse N2A cells assessed as maximal tolerant concentration; format: cell-based; details: read-out: MTD
N2a #58 F3 = assay: Antiprion activity against human prion protein Fukuoka-1 infected mouse F3 cells assessed as drug level required for more than 99 percent reduction of PrPSc level by Western blot method; format: cell-based
[3] = Antiprion activity against mouse prion protein 22L infected mouse N167 cells assessed as reduction of PrPSc level by Western blot method; format: cell-based
[4] = Antiprion activity against mouse prion protein RML infected mouse ScN2a cells assessed as reduction of PrPSc level by Western blot method; format: cell-based
[5] = Antiprion activity against human prion protein Fukuoka-1 infected mouse F3 cells assessed as reduction of PrPSc level by Western blot method; format: cell-based; details: N2a #58 F3
in vitro = details: dog, MDCK
MDCK [6] = format: ADME, cell-based, Canis lupus familiaris; details: dog, 2 h, 10 µM
MDCK [7] = assay: Permeability from basolateral to apical side of in wild type MDCK cells assessed as cell retention at 10 uM after 2 hrs; format: ADME, cell-based, Canis lupus familiaris; details: dog
[8] = Permeability from basolateral to apical side of in wild type MDCK cells assessed as mass balance at 10 uM after 2 hrs; format: ADME, cell-based, Canis lupus familiaris; details: dog, read-out: permeability
MDCK [9] = assay: Permeability from apical to basolateral side of in P-glycoprotein-mediated MDCK cells over expressing human MDR1 assessed as cell retention at 10 uM after 2 hrs; format: ADME, cell-based, Canis lupus familiaris; details: dog
human MDR1 [10] = assay: Permeability from basolateral to apical side of in MDCK cells overexpressing human MDR1 assessed as mass balance at 10 uM after 2 hrs; format: ADME, cell-based, Canis lupus familiaris; details: dog, read-out: permeability
human MDR1 [11] = format: ADME, cell-based, Canis lupus familiaris; details: dog, MDCK-MDR1
[12] = Permeability from apical to basolateral side of in wild type MDCK cells assessed as mass balance at 10 uM after 2 hrs; format: ADME, cell-based, Canis lupus familiaris; details: dog, read-out: permeability
human MDR1 [13] = assay: in vitro; details: dog, MDCK-MDR1
[14] = Effective permeability of the compound at pH 7.4 at 30 to 50 uM by PAMPA assay; format: ADME; details: read-out: Peff
human MDR1 [15] = format: ADME, cell-based, Canis lupus familiaris; details: dog, MDCK-MDR1; remark: listed apart in the source
MDCK [16] = format: ADME, cell-based, Canis lupus familiaris; details: dog, 2 h, 10 µM; remark: listed apart in the source
MDCK [17] = assay: Permeability from basolateral to apical side of in wild type MDCK cells assessed as adsorption on transwell at 10 uM after 2 hrs; format: ADME, cell-based, Canis lupus familiaris; details: dog
MDCK [18] = assay: Permeability from apical to basolateral side of in wild type MDCK cells assessed as adsorption on transwell at 10 uM after 2 hrs; format: ADME, cell-based, Canis lupus familiaris; details: dog
human MDR1 [19] = format: ADME, cell-based, Canis lupus familiaris; details: dog, MDCK-MDR1; read-out: permeability
MDCK [20] = assay: Permeability from apical to basolateral side of in wild type MDCK cells assessed as cell retention at 10 uM after 2 hrs; format: ADME, cell-based, Canis lupus familiaris; details: dog
MDCK [21] = assay: Permeability from basolateral to apical side of in P-glycoprotein-mediated MDCK cells over expressing human MDR1 assessed as cell retention at 10 uM after 2 hrs; format: ADME, cell-based, Canis lupus familiaris; details: dog
[22] = Solubility of the compound in phosphate buffer at 50 uM; format: physicochemical

SMILES	Activity (N167) [µM]	RUmax [1] [%]	Activity (ScN2a) [µM]	MNTC [2] [µM]	Activity (N2a #58 F3) [µM]	EC50 [3] [nM]	EC50 [4] [nM]	EC50 [5] [nM]	Papp at up to 50 µM [14] [×10⁻⁶ cm/s]	also measured
COc1ccc2nc3cc(Cl)ccc3c(NC3CCN(CCCc4ccccc4)CC3)c2c1	1	115	1	4	3	320	93	1040	–	–
COc1ccc2nc3cc(Cl)ccc3c(Nc3ccc(N4CCN(C)CC4)cc3)c2c1	1.5	120	0.4	2.5	1.5	420	100	680	8.13	efflux ratio at 2 h, 10 µM (in vitro): 1.2; permeability (MDCK [6]): 6.1%; permeability (MDCK [7]): 27.5%; recovery at 2 h, 10 µM [8]: 75.3%; permeability (MDCK [9]): 67%; recovery at 2 h, 10 µM (human MDR1 [10]): 73%; Papp A→B at 2 h, 10 µM (human MDR1 [11]): 0.14 ×10⁻⁶ cm/s; recovery at 2 h, 10 µM [12]: 11.3%; efflux ratio at 2 h, 10 µM (human MDR1 [13]): 2.4; Papp B→A at 2 h, 10 µM (human MDR1 [15]): 0.34 ×10⁻⁶ cm/s; permeability (MDCK [16]): 3.1%; permeability (MDCK [17]): 3.5%; permeability (MDCK [18]): 11.4%; recovery at 2 h, 10 µM (human MDR1 [19]): 12.6%; permeability (MDCK [20]): 66.4%; permeability (MDCK [21]): 44.2%
Clc1ccc2c(NC3CCN(Cc4ccccc4)CC3)ccnc2c1	2	114	1	> 10	3	230	150	1200	–	–
CN1CCN(c2ccc(Nc3c4c(nc5cc(Cl)ccc35)CCCC4)cc2)CC1	–	127	1	> 10	–	–	82	–	–	–
CN1CCN(c2ccc(Nc3ccnc4cc(Cl)ccc34)cc2)CC1	2	165	1	10	–	530	140	2040	–	–
CCN(CC)CCCNc1c2ccc(Cl)cc2nc2ccc(OC)cc12	–	162	–	–	–	–	–	–	22	–
COc1ccc2nc3cc(Cl)ccc3c(N)c2c1	–	139	–	–	–	–	–	–	14.8	–
COc1ccc2nc3cc(Cl)ccc3c(Nc3ccc(CN4CCN(C)CC4)cc3)c2c1	2	207	0.5	4	3	350	60	860	–	–
COc1ccc2nc3cc(Cl)ccc3c(Nc3ccc(CN4CCCCC4)cc3)c2c1	1	144	0.5	5	3	510	99	640	5.28	–
C=C[C@H]1C[N@@]2CC[C@H]1C[C@@H]2[C@@H](O)c1ccnc2ccc(OC)cc12 [QUINIDINE]	–	–	–	–	–	–	–	–	–	Papp [14]: 11.5 ×10⁻⁶ cm/s
COc1ccc2nc3cc(Cl)ccc3c(NC3CCN(Cc4ccc(C#N)cc4)CC3)c2c1	1	109	1	5	–	140	550	–	9.15	–
CCN1CCN(c2ccc(Nc3c4ccc(Cl)cc4nc4ccc(OC)cc34)cc2)CC1	–	194	1	3	–	960	80	–	6.13	–
CCN(CC)CCNc1c2ccc(Cl)cc2nc2ccc(OC)cc12	–	153	–	–	–	–	–	–	21	–
COc1ccc2nc3cc(Cl)ccc3c(Nc3ccc(N4CCN(C(C)=O)CC4)cc3)c2c1	–	210	0.1	5	–	–	35	–	8.79	–
COc1ccc2nc3cc(Cl)ccc3c(NCCCN(C)C)c2c1	–	164	–	–	–	–	–	–	13.3	–
COc1ccc2nc3cc(Cl)ccc3c(N(C)c3ccccc3)c2c1	–	43.2	5	8	–	–	2510	–	–	–
Cn1c(=O)c2c(ncn2C)n(C)c1=O [CAFFEINE]	–	–	–	–	–	–	–	–	2.46	–
COc1ccc2nc3cc(Cl)ccc3c(NC3CCN(CCc4ccc(C)cc4)CC3)c2c1	1	148	1	3	3	300	76	690	7.39	–
CCN(CC)CCCCNc1c2ccc(Cl)cc2nc2ccc(OC)cc12	–	178	–	–	–	–	–	–	16.4	–
COc1ccc2nc3cc(Cl)ccc3c(NC3CC4CCC(C3)N4Cc3ccccc3)c2c1 (stereo not given)	1	–	2	2	1.5	350	54	540	8.31	solubility [22]: Insoluble
COc1ccc2nc3cc(Cl)ccc3c(NC3CCN(Cc4ccc(C)cc4)CC3)c2c1	1	69.8	3	5	3	620	150	630	–	–
COc1ccc2nc3cc(Cl)ccc3c(NCC#CCN3CCN(C)CC3)c2c1	3	–	1	8	–	990	27	–	11.5	solubility [22]: Insoluble
COc1ccc2nc3cc(Cl)ccc3c(NC3CCN(Cc4ccc(Cl)cc4)CC3)c2c1	3	98.3	1	12	–	340	280	–	15.5	–
CCN(CC)CCCC(C)Nc1c2ccc(Cl)cc2nc2ccc(OC)cc12 (stereo not given) [QUINACRINE]	–	87.3	0.8	2.5	–	590	230	–	19.3	permeability (MDCK [6]): 5.5%; permeability (MDCK [7]): 27.7%; permeability (MDCK [9]): 35.5%; Papp A→B at 2 h, 10 µM (human MDR1 [11]): 1.23 ×10⁻⁶ cm/s; Papp B→A at 2 h, 10 µM (human MDR1 [15]): 6.7 ×10⁻⁶ cm/s; permeability (MDCK [16]): 3.9%; permeability (MDCK [17]): 3.2%; permeability (MDCK [18]): 5.3%; permeability (MDCK [20]): 80.2%; permeability (MDCK [21]): 24.5%
COc1ccc2nc3cc(Cl)ccc3c(NC3CCN(Cc4ccccc4)CC3)c2c1	1.5	65.4	1	2	–	490	420	800	–	–
COc1ccc2nc3cc(Cl)ccc3c(Nc3ccc(C(=O)N4CCN(C)CC4)cc3)c2c1	7	232	5	12	–	4200	1230	4100	–	–
COc1ccc2nc3cc(Cl)ccc3c(Nc3ccccc3)c2c1	–	–	–	5	–	–	540	–	–	solubility [22]: Insoluble
COc1ccc2nc3cc(Cl)ccc3c(NC3CCN(CCc4ccccc4)CC3)c2c1	1	174	0.5	2	2	230	130	190	7.68	–
Clc1ccc2c(NC3CCN(Cc4ccccc4)CC3)c3c(nc2c1)CCCC3	3	138	1	5	5	420	540	1190	–	–
COc1ccc(CN2CCC(Nc3c4ccc(Cl)cc4nc4ccc(OC)cc34)CC2)cc1	2	160	1.5	10	–	520	82	–	7.54	–
